# Patent publication US20150105252A1, “SUBSTITUTED PYRAZOLES AS HERBICIDES” (E I DU PONT DE NEMOURS AND COMPANY, priority 2013, published 2015)
# Key:
# [1] = test system: wheat; experiment: Test A preemergence; assay type: in vivo, Triticum aestivum; conditions: preemergence; for Wheat plant response rating (0 to 100 scale): 125 g ai/ha, visual injury approx. 10 days after treatment; for Wheat plant response rating: 500 g ai/ha, visual injury after approx. 10 days, 0 to 100 scale (0 no effect, 100 complete control)
# Method in brief: (§1)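 After sowing in a sand–loam mix, pots received compound preemergence by directed soil spray, or postemergence once plants reached the one- to two-leaf stage (2–10 cm). Formulation contained surfactant in a non-phytotoxic solvent. Injury was scored visually after ~10 greenhouse days, 0–100 scale.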
# [2] = test system: crabgrass, large; experiment: Test A postemergence; assay type: in vivo, Digitaria sanguinalis
# Method in brief: as §1
# [3] = test system: foxtail, giant; experiment: Test A postemergence; assay type: in vivo, Setaria faberii
# Method in brief: as §1
# [4] = test system: morningglory; experiment: Test A postemergence; assay type: in vivo, Ipomoea spp.
# Method in brief: as §1
# [5] = test system: velvetleaf; experiment: Test A postemergence; assay type: in vivo, Abutilon theophrasti
# Method in brief: as §1
# [6] = test system: corn; experiment: Test A postemergence; assay type: in vivo, Zea mays
# Method in brief: as §1
# [7] = test system: pigweed; experiment: Test C preemergence; assay type: in vivo, Amaranthus retroflexus; conditions: preemergence; for Plant response rating, Pigweed: 125 g ai/ha, scale 0 to 100, 0 = no effect, 100 = complete control
# Method in brief: (§2)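 Seeds were sown in a loam soil–sand blend and sprayed preemergence with compounds formulated in a non-phytotoxic solvent mixture containing surfactant. Postemergence plants, grown in peat/vermiculite medium to 2–18 cm (1- to 4-leaf stage), received the same formulation. After 13 to 15 days in a greenhouse, injury was rated visually against controls (0 = no effect, 100 = complete control).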
# [8] = test system: ragweed; experiment: Test C preemergence; assay type: in vivo, Ambrosia elation; conditions: preemergence; for Plant response rating, Ragweed: 125 g ai/ha, scale 0 to 100, 0 = no effect, 100 = complete control
# Method in brief: as §2
# [9] = test system: soybean; experiment: Test C preemergence; assay type: in vivo, Glycine max; conditions: preemergence; for Plant response rating, Soybean: 125 g ai/ha, scale 0 to 100, 0 = no effect, 100 = complete control
# Method in brief: as §2
# [10] = test system: oilseed rape; experiment: Test C preemergence; assay type: in vivo, Brassica napus; conditions: preemergence; for Plant response rating, Oilseed Rape: 125 g ai/ha, scale 0 to 100, 0 = no effect, 100 = complete control
# Method in brief: as §2
# [11] = test system: wheat; experiment: Test C postemergence; assay type: in vivo, Triticum aestivum; conditions: postemergence; for Plant response rating, Wheat: 250 g ai/ha, scale 0 to 100 (0 no effect, 100 complete control); for Wheat plant response rating: scale 0 to 100
# Method in brief: as §2
# [12] = test system: corn; experiment: Test C postemergence; assay type: in vivo, Zea mays; conditions: for Plant response rating (scale of 0 to 100 where 0 is no effect and 100 is complete control), Corn: Postemergence, 31 g ai/ha, visually evaluated after 13 to 15 days; for Corn plant response rating / Plant response rating, Corn: postemergence; for Corn plant response rating: 62 g ai/ha, scale 0 to 100
# Method in brief: as §2
# [13] = test system: lambsquarters; experiment: Test C postemergence; assay type: in vivo, Chenopodium album; conditions: for Plant response rating (scale of 0 to 100 where 0 is no effect and 100 is complete control), Lambsquarters: Postemergence, 31 g ai/ha, visually evaluated after 13 to 15 days; for Lambsquarters plant response rating / Plant response rating, Lambsquarters: postemergence; for Lambsquarters plant response rating: 62 g ai/ha, scale 0 to 100
# Method in brief: as §2
# [14] = test system: ragweed; experiment: Test C postemergence; assay type: in vivo, Ambrosia elation; conditions: postemergence
# Method in brief: as §2
# [15] = test system: soybean; experiment: Test C postemergence; assay type: in vivo, Glycine max; conditions: postemergence; for Plant response rating, Soybean: 250 g ai/ha, scale 0 to 100 (0 no effect, 100 complete control); for Soybean plant response rating: 125 g ai/ha, scale 0 to 100, 0 no effect, 100 complete control
# Method in brief: as §2
# [16] = test system: waterhemp; experiment: Test C postemergence; assay type: in vivo, Amaranthus rudis; conditions: postemergence; for Plant response rating, Waterhemp: 250 g ai/ha, scale 0 to 100 (0 no effect, 100 complete control); for Waterhemp plant response rating: scale 0 to 100
# Method in brief: as §2
# [17] = test system: velvetleaf; experiment: Test C postemergence; assay type: in vivo, Abutilon theophrasti; conditions: postemergence; for Plant response rating, Velvetleaf: 250 g ai/ha, scale 0 to 100 (0 no effect, 100 complete control); for Velvetleaf plant response rating: scale 0 to 100
# Method in brief: as §2
# [18] = Postemergence, 500 g ai/ha, 0 to 100 scale (0 no effect, 100 complete control)
# [19] = postemergence, 125 g ai/ha, about 10 days, visual rating on 0 to 100 scale (0 no effect, 100 complete control)
# [20] = 31 g ai/ha, visual rating, scale 0 to 100 (0 no effect, 100 complete control), 13 to 15 days
# [21] = 62 g ai/ha, scale 0 to 100 (0 no effect, 100 complete control), 13 to 15 days
# [22] = 250 g ai/ha, scale 0 to 100, 0 is no effect, 100 is complete control
# [23] = 250 g ai/ha, scale 0 to 100 (0 no effect, 100 complete control)
# [24] = 125 g ai/ha, scale 0 to 100, 0 no effect, 100 complete control
# [25] = Postemergence, 125 g ai/ha, 0 to 100 scale, 0 no effect, 100 complete control
smiles,measurement,setting,value
CCCNC(=O)c1cc(CCF)n(Cc2ccnc(C(F)(F)F)c2)n1 [Compound 177],Wheat plant response rating (0 to 100 scale),[1],10
same,Wheat plant response rating,[1],100
same,"Crabgrass, Large plant response rating",[2]; [18],100
same,"Crabgrass, Large plant response rating",[2]; [19],100
same,"Foxtail, Giant plant response rating",[3]; [18],100
same,"Foxtail, Giant plant response rating",[3]; [19],100
same,Morningglory plant response rating,[4]; [18],100
same,Morningglory plant response rating,[4]; [19],100
same,Velvetleaf plant response rating,[5]; [18],100
same,Velvetleaf plant response rating,[5]; [19],40
same,Corn plant response rating,[6]; [18],100
same,Corn plant response rating,[6]; [19],90
same,Pigweed plant response rating,[7]; [20],100
same,Pigweed plant response rating,[7]; [21],100
same,"Plant response rating, Pigweed",[7]; 13 to 15 days,100
same,Pigweed plant response rating,[7]; [22],100
same,Ragweed plant response rating,[8]; [20],75
same,Ragweed plant response rating,[8]; [21],85
same,"Plant response rating, Ragweed",[8]; 13 to 15 days,98
same,Ragweed plant response rating,[8]; [22],98
same,Soybean plant response rating,[9]; [20],40
same,Soybean plant response rating,[9]; [21],70
same,"Plant response rating, Soybean",[9]; 13 to 15 days,95
same,Soybean plant response rating,[9]; [22],98
same,Oilseed Rape plant response rating,[10]; [20],70
same,Oilseed Rape plant response rating,[10]; [21],60
same,"Plant response rating, Oilseed Rape",[10]; 13 to 15 days,90
same,Oilseed Rape plant response rating,[10]; [22],95
same,"Plant response rating, Wheat",[11],20
same,Wheat plant response rating,[11],15
same,"Plant response rating (scale of 0 to 100 where 0 is no effect and 100 is complete control), Corn",[12],5
same,Corn plant response rating,[12],20
same,"Plant response rating, Corn",[12]; [23],15
same,"Plant response rating, Corn",[12]; [24],15
same,"Plant response rating (scale of 0 to 100 where 0 is no effect and 100 is complete control), Lambsquarters",[13],65
same,Lambsquarters plant response rating,[13],50
same,"Plant response rating, Lambsquarters",[13]; [23],85
same,"Plant response rating, Lambsquarters",[13]; [24],75
same,"Plant response rating, Ragweed",[14]; [23],75
same,"Plant response rating, Ragweed",[14]; [24],70
same,"Plant response rating, Soybean",[15],95
same,Soybean plant response rating,[15],90
same,"Plant response rating, Waterhemp",[16],65
same,Waterhemp plant response rating,[16],75
same,"Plant response rating, Velvetleaf",[17],60
same,Velvetleaf plant response rating,[17],45
CCc1cc(C(=O)NCC(F)(F)F)nn1Cc1ccnc(SC(F)(F)F)c1 [Compound 214],Wheat plant response rating (0 to 100 scale),[1],80
same,"Crabgrass, Large plant response rating",[2]; [25],100
same,"Crabgrass, Large plant response rating",[2]; [18],100
same,"Foxtail, Giant plant response rating",[3]; [25],100
same,"Foxtail, Giant plant response rating",[3]; [18],100
same,Morningglory plant response rating,[4]; [25],80
same,Morningglory plant response rating,[4]; [18],100
same,Velvetleaf plant response rating,[5]; [25],80
same,Velvetleaf plant response rating,[5]; [18],100
same,Corn plant response rating,[6]; [25],40
same,Corn plant response rating,[6]; [18],90
same,Pigweed plant response rating,[7]; [20],100
same,Pigweed plant response rating,[7]; [21],100
same,"Plant response rating, Pigweed",[7]; 13 to 15 days,100
same,Pigweed plant response rating,[7]; [22],100
same,Ragweed plant response rating,[8]; [20],85
same,Ragweed plant response rating,[8]; [21],98
same,"Plant response rating, Ragweed",[8]; 13 to 15 days,100
same,Ragweed plant response rating,[8]; [22],98
same,Soybean plant response rating,[9]; [20],60
same,Soybean plant response rating,[9]; [21],85
same,"Plant response rating, Soybean",[9]; 13 to 15 days,90
same,Soybean plant response rating,[9]; [22],95
same,Oilseed Rape plant response rating,[10]; [20],80
same,Oilseed Rape plant response rating,[10]; [21],95
same,"Plant response rating, Oilseed Rape",[10]; 13 to 15 days,95
same,Oilseed Rape plant response rating,[10]; [22],95
same,"Plant response rating, Wheat",[11],10
same,Wheat plant response rating,[11],5
same,"Plant response rating (scale of 0 to 100 where 0 is no effect and 100 is complete control), Corn",[12],0
same,Corn plant response rating,[12],5
same,"Plant response rating, Corn",[12]; [23],10
same,"Plant response rating, Corn",[12]; [24],5
same,"Plant response rating (scale of 0 to 100 where 0 is no effect and 100 is complete control), Lambsquarters",[13],35
same,Lambsquarters plant response rating,[13],50
same,"Plant response rating, Lambsquarters",[13]; [23],80
same,"Plant response rating, Lambsquarters",[13]; [24],75
same,"Plant response rating, Ragweed",[14]; [23],70
same,"Plant response rating, Ragweed",[14]; [24],35
same,"Plant response rating, Soybean",[15],95
same,Soybean plant response rating,[15],90
same,"Plant response rating, Waterhemp",[16],70
same,Waterhemp plant response rating,[16],60
same,"Plant response rating, Velvetleaf",[17],75
same,Velvetleaf plant response rating,[17],20
CCOc1cc(C(=O)NOC(C)C)nn1Cc1ccnc(C(F)(F)F)c1 [Compound 153],Wheat plant response rating (0 to 100 scale),[1],100
same,Wheat plant response rating,[1],100
same,"Crabgrass, Large plant response rating",[2]; [18],100
same,"Crabgrass, Large plant response rating",[2]; [19],100
same,"Foxtail, Giant plant response rating",[3]; [18],100
same,"Foxtail, Giant plant response rating",[3]; [19],100
same,Morningglory plant response rating,[4]; [18],100
same,Morningglory plant response rating,[4]; [19],100
same,Velvetleaf plant response rating,[5]; [18],100
same,Velvetleaf plant response rating,[5]; [19],70
same,Corn plant response rating,[6]; [18],100
same,Corn plant response rating,[6]; [19],90
same,Pigweed plant response rating,[7]; [20],20
same,Pigweed plant response rating,[7]; [21],95
same,"Plant response rating, Pigweed",[7]; 13 to 15 days,100
same,Pigweed plant response rating,[7]; [22],98
same,Ragweed plant response rating,[8]; [20],50
same,Ragweed plant response rating,[8]; [21],95
same,"Plant response rating, Ragweed",[8]; 13 to 15 days,98
same,Ragweed plant response rating,[8]; [22],98
same,Soybean plant response rating,[9]; [20],5
same,Soybean plant response rating,[9]; [21],10
same,"Plant response rating, Soybean",[9]; 13 to 15 days,45
same,Soybean plant response rating,[9]; [22],80
same,Oilseed Rape plant response rating,[10]; [20],60
same,Oilseed Rape plant response rating,[10]; [21],95
same,"Plant response rating, Oilseed Rape",[10]; 13 to 15 days,95
same,Oilseed Rape plant response rating,[10]; [22],95
same,"Plant response rating, Wheat",[11],15
same,Wheat plant response rating,[11],0
same,"Plant response rating (scale of 0 to 100 where 0 is no effect and 100 is complete control), Corn",[12],5
same,Corn plant response rating,[12],10
same,"Plant response rating, Corn",[12]; [23],20
same,"Plant response rating, Corn",[12]; [24],30
same,"Plant response rating (scale of 0 to 100 where 0 is no effect and 100 is complete control), Lambsquarters",[13],65
same,Lambsquarters plant response rating,[13],55
same,"Plant response rating, Lambsquarters",[13]; [23],85
same,"Plant response rating, Lambsquarters",[13]; [24],75
same,"Plant response rating, Ragweed",[14]; [23],85
same,"Plant response rating, Ragweed",[14]; [24],40
same,"Plant response rating, Soybean",[15],40
same,Soybean plant response rating,[15],35
same,"Plant response rating, Waterhemp",[16],65
same,Waterhemp plant response rating,[16],40
same,"Plant response rating, Velvetleaf",[17],65
same,Velvetleaf plant response rating,[17],30
